From ChEMBL document CHEMBL4507320, “Data for DCP probe NVS-MALT1” (2021)
Activity calls are given as the source filed them. The calls are words filed in the database; no cut-off is given here.

What was measured:
[1] = biological target: T1, Mucosa-associated lymphoid tissue lymphoma translocation protein 1 (Homo sapiens, UniProt Q9UDY8); assay: Human biochemical (TR-FRET) assay (high salt)
T1 sequence (Q9UDY8 whole entry): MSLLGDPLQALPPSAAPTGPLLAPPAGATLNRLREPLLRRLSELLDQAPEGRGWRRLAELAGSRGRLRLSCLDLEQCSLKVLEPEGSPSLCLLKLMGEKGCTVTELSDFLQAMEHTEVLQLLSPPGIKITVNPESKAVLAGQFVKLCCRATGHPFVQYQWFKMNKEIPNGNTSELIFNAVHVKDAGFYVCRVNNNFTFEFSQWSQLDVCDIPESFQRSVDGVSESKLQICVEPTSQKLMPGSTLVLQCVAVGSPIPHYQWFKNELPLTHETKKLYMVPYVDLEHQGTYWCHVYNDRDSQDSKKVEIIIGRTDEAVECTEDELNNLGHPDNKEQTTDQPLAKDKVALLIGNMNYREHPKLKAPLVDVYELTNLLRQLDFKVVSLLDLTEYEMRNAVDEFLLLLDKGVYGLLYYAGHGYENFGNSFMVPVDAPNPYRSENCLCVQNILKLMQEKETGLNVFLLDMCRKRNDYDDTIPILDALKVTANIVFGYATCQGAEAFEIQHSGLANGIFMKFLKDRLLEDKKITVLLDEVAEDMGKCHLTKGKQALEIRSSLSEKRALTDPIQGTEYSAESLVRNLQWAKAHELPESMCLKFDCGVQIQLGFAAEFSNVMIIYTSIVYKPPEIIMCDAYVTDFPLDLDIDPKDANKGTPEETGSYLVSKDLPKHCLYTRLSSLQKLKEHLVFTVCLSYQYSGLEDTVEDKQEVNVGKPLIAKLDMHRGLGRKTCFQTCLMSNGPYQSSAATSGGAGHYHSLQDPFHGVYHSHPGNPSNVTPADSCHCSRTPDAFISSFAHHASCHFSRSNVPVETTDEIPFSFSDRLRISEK

[2] = biological target: Atypical kinase COQ8A, mitochondrial (Homo sapiens) (UniProt Q8NI60); settings: Compound concentration 1000.0 nM
[3] = biological target: Peripheral plasma membrane protein CASK (Homo sapiens) (UniProt O14936); settings: Compound concentration 1000.0 nM
[4] = biological target: Cyclin-dependent kinase 2 (Homo sapiens) (UniProt P24941); settings: Compound concentration 1000.0 nM
[5] = biological target: Serine/threonine-protein kinase 17B (Homo sapiens) (UniProt O94768); settings: Compound concentration 1000.0 nM
[6] = biological target: Dual specificity tyrosine-phosphorylation-regulated kinase 1A (Homo sapiens) (UniProt Q13627); settings: Compound concentration 1000.0 nM
[7] = test system: Epidermal growth factor receptor (Homo sapiens), P00533 [UNDEFINED MUTATION]; settings: Compound concentration 1000.0 nM
[8] = biological target: Ephrin type-B receptor 4 (Homo sapiens) (UniProt P54760); settings: Compound concentration 1000.0 nM
[9] = test system: eIF-2-alpha kinase GCN2 (Homo sapiens), Q9P2K8 [S808G]; settings: Compound concentration 1000.0 nM
[10] = biological target: Mitogen-activated protein kinase 9 (Homo sapiens) (UniProt P45984); settings: Compound concentration 1000.0 nM
[11] = test system: Mast/stem cell growth factor receptor Kit (Homo sapiens), P10721 [V559D]; settings: Compound concentration 1000.0 nM
[12] = biological target: Mitogen-activated protein kinase kinase kinase 3 (Homo sapiens) (UniProt Q99759); settings: Compound concentration 1000.0 nM
[13] = biological target: MAP/microtubule affinity-regulating kinase 3 (Homo sapiens) (UniProt P27448); settings: Compound concentration 1000.0 nM
[14] = biological target: MAP/microtubule affinity-regulating kinase 4 (Homo sapiens) (UniProt Q96L34); settings: Compound concentration 1000.0 nM
[15] = test system: Hepatocyte growth factor receptor (Homo sapiens), P08581 [Y1235D]; settings: Compound concentration 1000.0 nM
[16] = biological target: Mitogen-activated protein kinase 11 (Homo sapiens) (UniProt Q15759); settings: Compound concentration 1000.0 nM
[17] = biological target: Mitogen-activated protein kinase 13 (Homo sapiens) (UniProt O15264); settings: Compound concentration 1000.0 nM
[18] = biological target: Cyclin-dependent kinase 18 (Homo sapiens) (UniProt Q07002); settings: Compound concentration 1000.0 nM
[19] = biological target: Phosphorylase b kinase regulatory subunit alpha, liver isoform (Homo sapiens) (UniProt P46019); settings: Compound concentration 1000.0 nM
[20] = test system: Phosphatidylinositol 4,5-bisphosphate 3-kinase catalytic subunit alpha isoform (Homo sapiens), P42336 [E542K]; settings: Compound concentration 1000.0 nM
[21] = test system: Phosphatidylinositol 4,5-bisphosphate 3-kinase catalytic subunit alpha isoform (Homo sapiens), P42336 [I800L]; settings: Compound concentration 1000.0 nM
[22] = biological target: Phosphatidylinositol 4,5-bisphosphate 3-kinase catalytic subunit gamma isoform (Homo sapiens) (UniProt P48736); settings: Compound concentration 1000.0 nM
[23] = biological target: Phosphatidylinositol 5-phosphate 4-kinase type-2 gamma (Homo sapiens) (UniProt Q8TBX8); settings: Compound concentration 1000.0 nM
[24] = biological target: Membrane-associated tyrosine- and threonine-specific cdc2-inhibitory kinase (Homo sapiens) (UniProt Q99640); settings: Compound concentration 1000.0 nM
[25] = biological target: Serine/threonine-protein kinase D3 (Homo sapiens) (UniProt O94806); settings: Compound concentration 1000.0 nM
[26] = biological target: cAMP-dependent protein kinase catalytic subunit PRKX (Homo sapiens) (UniProt P51817); settings: Compound concentration 1000.0 nM
[27] = biological target: Protein-tyrosine kinase 2-beta (Homo sapiens) (UniProt Q14289); settings: Compound concentration 1000.0 nM
[28] = test system: Proto-oncogene tyrosine-protein kinase receptor Ret (Homo sapiens), P07949 [M918T]; settings: Compound concentration 1000.0 nM
[29] = biological target: Ribosomal protein S6 kinase alpha-4 (Homo sapiens) (UniProt O75676); settings: Compound concentration 1000.0 nM
[30] = biological target: Ribosomal protein S6 kinase alpha-6 (Homo sapiens) (UniProt Q9UK32); settings: Compound concentration 1000.0 nM
[31] = biological target: Serine/threonine-protein kinase 36 (Homo sapiens) (UniProt Q9NRP7); settings: Compound concentration 1000.0 nM
[32] = biological target: Dual specificity protein kinase TTK (Homo sapiens) (UniProt P33981); settings: Compound concentration 1000.0 nM
[33] = biological target: Mitogen-activated protein kinase kinase kinase 20 (Homo sapiens) (UniProt Q9NYL2); settings: Compound concentration 1000.0 nM

Sequence of Peripheral plasma membrane protein CASK (Homo sapiens) (O14936 whole entry): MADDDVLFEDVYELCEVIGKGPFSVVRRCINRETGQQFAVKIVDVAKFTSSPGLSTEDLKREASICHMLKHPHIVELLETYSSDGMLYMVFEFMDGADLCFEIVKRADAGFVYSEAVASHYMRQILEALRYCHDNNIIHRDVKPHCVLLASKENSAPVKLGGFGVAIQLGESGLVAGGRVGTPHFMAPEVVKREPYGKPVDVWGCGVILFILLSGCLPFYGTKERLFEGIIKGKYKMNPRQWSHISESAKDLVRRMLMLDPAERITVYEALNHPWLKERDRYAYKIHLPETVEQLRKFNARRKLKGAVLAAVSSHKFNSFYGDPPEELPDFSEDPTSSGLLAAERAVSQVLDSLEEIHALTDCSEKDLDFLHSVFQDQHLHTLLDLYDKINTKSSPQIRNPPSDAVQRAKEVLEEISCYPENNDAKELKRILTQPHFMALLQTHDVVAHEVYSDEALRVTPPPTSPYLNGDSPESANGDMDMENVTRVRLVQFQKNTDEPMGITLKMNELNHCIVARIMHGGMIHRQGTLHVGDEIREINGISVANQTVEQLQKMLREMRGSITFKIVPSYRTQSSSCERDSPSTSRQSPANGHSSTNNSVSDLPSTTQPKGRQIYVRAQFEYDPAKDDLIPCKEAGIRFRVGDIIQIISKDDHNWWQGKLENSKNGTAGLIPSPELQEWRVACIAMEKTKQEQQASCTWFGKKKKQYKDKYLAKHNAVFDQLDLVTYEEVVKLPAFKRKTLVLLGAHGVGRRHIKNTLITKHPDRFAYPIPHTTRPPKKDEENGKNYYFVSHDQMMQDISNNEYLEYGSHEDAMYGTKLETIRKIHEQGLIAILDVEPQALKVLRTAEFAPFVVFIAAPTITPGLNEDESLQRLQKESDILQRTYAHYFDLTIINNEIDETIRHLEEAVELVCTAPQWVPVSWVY
Sequence of Mast/stem cell growth factor receptor Kit (Homo sapiens), P10721 [V559D] (P10721 whole entry V559D): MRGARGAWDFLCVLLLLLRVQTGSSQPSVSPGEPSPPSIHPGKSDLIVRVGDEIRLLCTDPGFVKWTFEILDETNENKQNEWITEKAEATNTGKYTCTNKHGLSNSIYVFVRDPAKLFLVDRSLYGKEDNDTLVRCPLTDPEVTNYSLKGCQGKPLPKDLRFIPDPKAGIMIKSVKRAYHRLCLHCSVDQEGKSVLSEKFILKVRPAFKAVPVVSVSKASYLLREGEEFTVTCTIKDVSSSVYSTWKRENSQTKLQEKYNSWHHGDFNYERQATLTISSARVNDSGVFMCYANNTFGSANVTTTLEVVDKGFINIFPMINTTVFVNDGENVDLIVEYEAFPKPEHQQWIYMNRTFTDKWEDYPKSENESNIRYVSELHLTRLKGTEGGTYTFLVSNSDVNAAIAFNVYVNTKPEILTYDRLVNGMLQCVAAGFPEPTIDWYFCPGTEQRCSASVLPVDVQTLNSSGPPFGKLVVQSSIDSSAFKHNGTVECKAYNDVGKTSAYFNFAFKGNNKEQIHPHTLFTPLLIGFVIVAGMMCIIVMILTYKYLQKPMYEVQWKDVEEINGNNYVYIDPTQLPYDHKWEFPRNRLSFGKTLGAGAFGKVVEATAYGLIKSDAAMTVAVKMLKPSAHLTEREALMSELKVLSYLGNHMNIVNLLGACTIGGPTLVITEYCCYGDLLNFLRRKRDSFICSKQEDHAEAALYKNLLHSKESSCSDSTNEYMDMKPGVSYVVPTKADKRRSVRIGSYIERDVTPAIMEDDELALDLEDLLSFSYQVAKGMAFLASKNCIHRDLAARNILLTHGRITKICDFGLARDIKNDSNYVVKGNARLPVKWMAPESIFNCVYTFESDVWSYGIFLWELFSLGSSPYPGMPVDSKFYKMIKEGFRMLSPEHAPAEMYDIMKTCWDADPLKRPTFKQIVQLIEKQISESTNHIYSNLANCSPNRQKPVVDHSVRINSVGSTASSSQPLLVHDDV
Sequence of Mitogen-activated protein kinase 11 (Homo sapiens) (Q15759 whole entry): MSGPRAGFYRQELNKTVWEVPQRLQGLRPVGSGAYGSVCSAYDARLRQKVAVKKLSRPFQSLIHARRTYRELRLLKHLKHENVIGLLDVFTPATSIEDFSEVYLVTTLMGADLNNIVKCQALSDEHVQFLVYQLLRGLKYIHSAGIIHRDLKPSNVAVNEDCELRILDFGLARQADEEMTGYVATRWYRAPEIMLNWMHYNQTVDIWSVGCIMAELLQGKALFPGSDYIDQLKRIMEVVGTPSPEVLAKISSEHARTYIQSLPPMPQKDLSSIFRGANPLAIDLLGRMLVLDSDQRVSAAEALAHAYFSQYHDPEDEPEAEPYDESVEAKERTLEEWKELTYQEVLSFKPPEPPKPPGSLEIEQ
Sequence of Ephrin type-B receptor 4 (Homo sapiens) (P54760 whole entry): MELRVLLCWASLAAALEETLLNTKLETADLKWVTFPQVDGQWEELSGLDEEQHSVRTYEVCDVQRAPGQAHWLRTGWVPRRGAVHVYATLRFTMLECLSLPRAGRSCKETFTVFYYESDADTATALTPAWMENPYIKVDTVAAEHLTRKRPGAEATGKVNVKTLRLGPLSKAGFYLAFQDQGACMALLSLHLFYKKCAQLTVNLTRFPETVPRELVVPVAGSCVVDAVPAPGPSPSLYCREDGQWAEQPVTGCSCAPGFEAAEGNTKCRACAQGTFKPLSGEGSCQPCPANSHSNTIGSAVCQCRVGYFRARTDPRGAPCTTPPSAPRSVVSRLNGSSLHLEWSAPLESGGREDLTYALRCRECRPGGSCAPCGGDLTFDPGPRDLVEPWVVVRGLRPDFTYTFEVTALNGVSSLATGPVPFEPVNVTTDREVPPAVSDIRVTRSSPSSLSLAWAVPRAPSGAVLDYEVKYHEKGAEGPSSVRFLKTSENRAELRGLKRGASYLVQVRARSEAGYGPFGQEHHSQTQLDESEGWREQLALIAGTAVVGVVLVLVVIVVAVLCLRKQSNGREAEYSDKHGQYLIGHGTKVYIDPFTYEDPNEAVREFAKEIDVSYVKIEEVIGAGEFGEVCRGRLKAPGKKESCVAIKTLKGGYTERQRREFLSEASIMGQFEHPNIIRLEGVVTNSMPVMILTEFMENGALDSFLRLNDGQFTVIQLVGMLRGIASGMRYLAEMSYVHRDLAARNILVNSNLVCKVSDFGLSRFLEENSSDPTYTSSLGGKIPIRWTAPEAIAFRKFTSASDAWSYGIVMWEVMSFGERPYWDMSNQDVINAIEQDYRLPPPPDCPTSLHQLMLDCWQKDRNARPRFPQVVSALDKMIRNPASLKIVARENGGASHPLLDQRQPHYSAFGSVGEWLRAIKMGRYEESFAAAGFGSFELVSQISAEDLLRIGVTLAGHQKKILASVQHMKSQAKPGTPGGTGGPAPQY
Sequence of Phosphorylase b kinase regulatory subunit alpha, liver isoform (Homo sapiens) (P46019 whole entry, canonical isoform): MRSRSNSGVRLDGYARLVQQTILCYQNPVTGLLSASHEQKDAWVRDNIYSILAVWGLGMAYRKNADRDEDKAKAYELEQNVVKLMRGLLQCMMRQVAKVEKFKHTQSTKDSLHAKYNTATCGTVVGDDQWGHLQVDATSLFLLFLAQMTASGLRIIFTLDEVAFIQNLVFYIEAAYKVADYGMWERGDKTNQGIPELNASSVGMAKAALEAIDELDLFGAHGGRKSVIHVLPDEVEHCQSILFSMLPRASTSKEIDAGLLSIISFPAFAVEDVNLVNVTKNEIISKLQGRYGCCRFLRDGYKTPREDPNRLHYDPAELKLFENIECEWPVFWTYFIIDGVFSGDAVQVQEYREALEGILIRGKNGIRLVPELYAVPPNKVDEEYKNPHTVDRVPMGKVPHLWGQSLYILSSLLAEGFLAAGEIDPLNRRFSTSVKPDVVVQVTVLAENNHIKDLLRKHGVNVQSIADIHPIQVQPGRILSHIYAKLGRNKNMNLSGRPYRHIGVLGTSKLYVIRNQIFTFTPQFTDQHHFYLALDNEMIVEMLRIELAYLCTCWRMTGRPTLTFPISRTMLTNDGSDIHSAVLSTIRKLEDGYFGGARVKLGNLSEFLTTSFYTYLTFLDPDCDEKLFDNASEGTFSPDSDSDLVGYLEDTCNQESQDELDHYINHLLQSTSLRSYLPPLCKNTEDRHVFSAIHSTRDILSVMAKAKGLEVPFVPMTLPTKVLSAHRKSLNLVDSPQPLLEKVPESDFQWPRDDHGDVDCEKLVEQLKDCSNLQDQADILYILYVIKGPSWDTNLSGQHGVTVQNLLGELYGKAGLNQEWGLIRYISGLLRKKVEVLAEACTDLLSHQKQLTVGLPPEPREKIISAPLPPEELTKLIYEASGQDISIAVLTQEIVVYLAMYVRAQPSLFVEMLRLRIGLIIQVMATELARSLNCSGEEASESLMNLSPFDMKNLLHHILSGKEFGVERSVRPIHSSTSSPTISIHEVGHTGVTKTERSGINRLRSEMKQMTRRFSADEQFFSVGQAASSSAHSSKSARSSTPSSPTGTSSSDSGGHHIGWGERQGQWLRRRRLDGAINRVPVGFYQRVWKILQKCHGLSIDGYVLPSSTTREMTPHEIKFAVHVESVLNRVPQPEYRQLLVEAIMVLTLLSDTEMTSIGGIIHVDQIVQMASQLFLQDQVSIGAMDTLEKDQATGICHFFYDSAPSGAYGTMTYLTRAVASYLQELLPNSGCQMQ
Sequence of Atypical kinase COQ8A, mitochondrial (Homo sapiens) (Q8NI60 163-647 limits assumed): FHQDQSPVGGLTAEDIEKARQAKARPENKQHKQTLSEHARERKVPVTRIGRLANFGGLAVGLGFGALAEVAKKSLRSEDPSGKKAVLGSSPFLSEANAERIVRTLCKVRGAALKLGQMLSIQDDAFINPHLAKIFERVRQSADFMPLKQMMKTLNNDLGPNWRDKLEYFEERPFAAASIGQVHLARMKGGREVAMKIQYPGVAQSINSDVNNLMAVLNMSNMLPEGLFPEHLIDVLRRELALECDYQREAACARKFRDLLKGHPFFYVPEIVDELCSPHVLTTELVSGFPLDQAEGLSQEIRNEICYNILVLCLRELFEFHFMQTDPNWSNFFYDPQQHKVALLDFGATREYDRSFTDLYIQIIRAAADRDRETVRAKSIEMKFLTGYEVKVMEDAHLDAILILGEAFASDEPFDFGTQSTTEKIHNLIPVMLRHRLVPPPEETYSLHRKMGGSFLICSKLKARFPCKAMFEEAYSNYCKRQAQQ

Row | SMILES | IC50 [1] | residual activity [2] [%] | residual activity [3] [%] | residual activity [4] [%] | residual activity [5] [%] | residual activity [6] [%] | residual activity [7] [%] | residual activity [8] [%] | residual activity [9] [%] | residual activity [10] [%] | residual activity [11] [%] | residual activity [12] [%] | residual activity [13] [%] | residual activity [14] [%] | residual activity [15] [%] | residual activity [16] [%] | residual activity [17] [%] | residual activity [18] [%] | residual activity [19] [%] | residual activity [20] [%] | other results
1 | CO[C@@H](C)c1c(Nc2ccc([C@H](N(C)C(=O)C3CCS(=O)(=O)CC3)C(F)(F)F)cc2)cnc2cc(Cl)nn12 [NVS-MALT1] | 2.4 nM (active) | 100 | 100 | 88 | 99 | 75 | 100 | 100 | 78 | 92 | 100 | 73 | 100 | 76 | 100 | 79 | 100 | 93 | 96 | 71 | residual activity [21]: 55%; residual activity [22]: 83%; residual activity [23]: 91%; residual activity [24]: 85%; residual activity [25]: 85%; residual activity [26]: 88%; residual activity [27]: 83%; residual activity [28]: 95%; residual activity [29]: 100%; residual activity [30]: 100%; residual activity [31]: 91%; residual activity [32]: 77%; residual activity [33]: 100%
2 | CO[C@@H](C)c1c(Nc2ccc([C@@H](N(C)C(=O)C3CCS(=O)(=O)CC3)C(F)(F)F)cc2)cnc2cc(Cl)nn12 [NVS-MALT1-C] | 190 nM (active) | 100 | 100 | 100 | 98 | 92 | 90 | 100 | 68 | 76 | 100 | 100 | 100 | 89 | 85 | 86 | 100 | 99 | 44 | 78 | residual activity [21]: 71%; residual activity [22]: 87%; residual activity [23]: 58%; residual activity [24]: 99%; residual activity [25]: 93%; residual activity [26]: 84%; residual activity [27]: 100%; residual activity [28]: 85%; residual activity [29]: 100%; residual activity [30]: 100%; residual activity [31]: 94%; residual activity [32]: 100%; residual activity [33]: 100%
